Experimental findings from patent US8188098B2, “GPR119 receptor agonists” (Hoffmann-La Roche Inc., priority 2008, dated 2012) are described below.

Usually EC50 stands for the midpoint of the concentration-response curve. Low readings indicate a more potent agent, high ones a less potent agent.

Structures can show the parent of a compound that is named as a salt.

The target of this assay is T1, GPR119 receptor (Mesocricetus auratus, UniProt A0A1U8CD06).
T1 construct: which endogenously express the GPR119 receptor; host or cells: HIT-T15 hamster pancreatic islet cells
T1 sequence (A0A1U8CD06 1-334): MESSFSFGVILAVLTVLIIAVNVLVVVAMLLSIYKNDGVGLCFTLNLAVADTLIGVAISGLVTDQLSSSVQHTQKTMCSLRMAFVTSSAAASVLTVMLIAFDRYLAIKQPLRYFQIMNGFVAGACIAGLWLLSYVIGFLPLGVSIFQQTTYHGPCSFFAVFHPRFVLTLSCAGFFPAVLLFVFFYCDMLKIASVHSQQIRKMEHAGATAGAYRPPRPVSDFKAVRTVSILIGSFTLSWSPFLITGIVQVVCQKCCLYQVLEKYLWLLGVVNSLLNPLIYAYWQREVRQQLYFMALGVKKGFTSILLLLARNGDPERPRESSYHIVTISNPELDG
As to the kind of experiment: cAMP assay in HIT-T15 hamster pancreatic islet cells (functional agonist activity). Type of assay: cell-based. As to conditions: HIT-T15 cells endogenously expressing GPR119; 30 min at 25° C.; intracellular cAMP. As for the experimental part: The functional agonist activities of compounds of the invention were characterized using a cAMP assay in HIT-T15 hamster pancreatic islet cells (American Type Culture Collection, Manassas, Va., USA) which endogenously express the GPR119 receptor. The cells were cultured in Kaighn's modification of Ham's F12 medium (Invitrogen Corporation, Carlsbad, Calif., USA) containing 10% horse serum, 2.5% FBS, and 1% Pen/Strep and grown in 225 cm^2 tissue culture flasks until they reached 75-85% confluence.
The cells were harvested 24 h prior to assay with 5 ml Versene®, washed with Kaighn/F12 medium and then plated into white 384-well plates (9000 cells/well) containing Kaighn/F12 medium. Prior to assay, the culture medium was replaced with a Kaighn/F12 medium without phenol red (50 μL/well) containing 0.5 mM 3-isobutyl-1-methylxanthine, 0.5 mg/ml BSA. The cells were incubated in the dark for 30 min at 25° C. in the absence or presence of varying concentrations of agonist (1 μL, 100% DMSO). The incubation media was discarded and replaced with the assay lysis buffer (50 μL/well) provided in the Tropix cAMP-Screen® kit (Applied Biosystems, Foster City, Calif., USA) and the plates incubated for 45 min at 37° C. The intracellular levels of cAMP generated in the HIT-T 15 cells were measured using the Tropix kit. In brief, 20 μL of the lysate was transferred into pre-coated antibody plates (384-well; Tropix kit) along with 10 μL of alkaline phosphatase conjugate and 20 μL of anti-cAMP antibody and the plates were incubated for 1 h at room temperature while shaking. The plates were then washed 5 times with wash buffer (70 μL) and tapped dry. CSPD®/Sapphire-II™ RTU substrate/enhancer solution (Applied Biosystems, Foster City, Calif., USA; 30 μL) was added and the plates were incubated for 45 min at room temperature while shaking. The signal generated was measured using a Wallac Victor V Luminometer (PerkinElmer Life And Analytical Sciences, Inc., Waltham, Mass., USA; 1 sec/well). EC50 values were calculated using the XLFit program (ID Business Solutions Ltd., Guildford, Surrey, UK).
In general terms: Changes in cAMP serve as a functional read-out for many G protein-coupled receptors.
The molecule `CC(C)COC(=O)N1CCC(n2ncc3c(Oc4ccc(S(C)(=O)=O)cc4)ncnc32)CC1` [Example 106, 4-[4-(4-Methanesulfonyl-phenoxy)-pyrazolo[3,4-d]pyrimidin-1-yl]-piperidine-1-carboxylic acid isobutyl ester] displayed an EC50 of 0.11 µM. That is a sub-micromolar value. On to `CC(=O)Nc1cccc(Oc2ncnc3c2cnn3C2CCN(C(=O)OC(C)(C)C)CC2)c1` [Example 69, 4-[4-(3-Acetylamino-phenoxy)-pyrazolo[3,4-d]pyrimidin-1-yl]-piperidine-1-carboxylic acid tert-butyl ester], for which the EC50 stood at 0.6 µM.

Consider `CC(C)(C)OC(=O)N1CCCC(n2ncc3c(Oc4ccc(S(C)(=O)=O)cc4)ncnc32)C1` (single isomer, unassigned) [Example 88], for which the response was half-maximal at 0.045 µM (EC50). The same measure for `CS(=O)(=O)c1ccc(Oc2ncnc3c2cnn3C2CCN(Cc3ccc(Cl)cc3)CC2)cc1` [Example 160, 1-[1-(4-Chloro-benzyl)-piperidin-4-yl]-4-(4-methanesulfonyl-phenoxy)-1H-pyrazolo[3,4-d]pyrimidine]: 0.57 µM; for `CC(C)(OC(=O)N1CCC(n2ncc3c(Oc4ccc(S(C)(=O)=O)cc4)ncnc32)CC1)C(F)(F)F` [Example 111, 4-[4-(4-Methanesulfonyl-phenoxy)-pyrazolo[3,4-d]pyrimidin-1-yl]-piperidine-1-carboxylic acid 2,2,2-trifluoro-1,1-dimethyl-ethyl ester]: 0.05 µM. Regarding `CS(=O)(=O)c1ccc(Oc2ncnc3c2cnn3C2CCN(c3ccc(Cl)nn3)CC2)cc1` [Example 130, 1-[1-(6-Chloro-pyridazin-3-yl)-piperidin-4-yl]-4-(4-methanesulfonyl-phenoxy)-1H-pyrazolo[3,4-d]pyrimidine], the EC50 was 0.71 µM. As to `CC(C)OC(=O)N1CCC(n2ncc3c(Oc4ccc(S(C)(=O)=O)cc4F)ncnc32)CC1` [Example 23, 4-[4-(2-Fluoro-4-methanesulfonyl-phenoxy)-pyrazolo[3,4-d]pyrimidin-1-yl]-piperidine-1-carboxylic acid isopropyl ester], it took 0.11 µM to reach a half-maximal effect (EC50). The same measure for `CS(=O)(=O)c1ccc(Oc2ncnc3c2cnn3C2CCN(Cc3cccc(OC(F)(F)F)c3)CC2)cc1` [Example 162, 4-(4-Methanesulfonyl-phenoxy)-1-[1-(3-trifluoromethoxy-benzyl)-piperidin-4-yl]-1H-pyrazolo[3,4-d]pyrimidine]: 0.12 µM; for `CC(C)Cc1cc(C(=O)N2CCC(n3ncc4c(Oc5ccc(S(C)(=O)=O)cc5)ncnc43)CC2)no1` [Example 154, (5-Isobutyl-isoxazol-3-yl)-{4-[4-(4-methanesulfonyl-phenoxy)-pyrazolo[3,4-d]pyrimidin-1-yl]-piperidin-1-yl}-methanone]: 0.36 µM. `Cc1nc(S(C)(=O)=O)ccc1Oc1ncnc2c1cnn2C1CCN(C(=O)OC(C)C)CC1` [Example 29, 4-[4-(6-Methanesulfonyl-2-methyl-pyridin-3-yloxy)-pyrazolo[3,4-d]pyrimidin-1-yl]-piperidine-1-carboxylic acid isopropyl ester] gave an EC50 of 0.14 µM. The result for `Cc1ncccc1Oc1ncnc2c1cnn2C1CCN(C(=O)OC(C)C)CC1` [Example 28, 4-[4-(2-Methyl-pyridin-3-yloxy)-pyrazolo[3,4-d]pyrimidin-1-yl]-piperidine-1-carboxylic acid isopropyl ester hydrochloride salt] reads 0.82 µM; that for `Cc1ncccc1Oc1ncnc2c1cnn2C1CCC(c2nc(C(C)C)no2)CC1` (centres unmarked) [Example 135, 1-[4-(3-Isopropyl-[1,2,4]oxadiazol-5-yl)-cyclohexyl]-4-(2-methyl-pyridin-3-yloxy)-1H-pyrazolo[3,4-d]pyrimidine], 0.92 µM.

Molecule `CC(C)(C)OC(=O)N1CCC(n2ncc3c(Oc4cccc(F)c4)ncnc32)CC1` [Example 33, 4-[4-(3-Fluoro-phenoxy)-pyrazolo[3,4-d]pyrimidin-1-yl]-piperidine-1-carboxylic acid tert-butyl ester] yielded an EC50 of 0.6 µM.

Turning to `CC(C)(C)OC(=O)N1CCC(n2ncc3c(Oc4ccc5c(c4)C=CS5(=O)=O)ncnc32)CC1` [Example 78, 4-[4-(1,1-Dioxo-1H-1λ^6-benzo[b]thiophen-5-yloxy)-pyrazolo[3,4-d]pyrimidin-1-yl]-piperidine-1-carboxylic acid tert-butyl ester], the EC50 stood at 0.75 µM. `CC(C)c1noc(N2CCC(n3ncc4c(Oc5ccc(S(C)(=O)=O)cc5)ncnc43)CC2)n1` [Example 126, 1-[1-(3-Isopropyl-[1,2,4]oxadiazol-5-yl)-piperidin-4-yl]-4-(4-methanesulfonyl-phenoxy)-1H-pyrazolo[3,4-d]pyrimidine] returned an EC50 of 0.43 µM. This EC50 is about 1.7-fold lower than that of the molecule before. The same measure for `CC(C)(C)OC(=O)N1CCCC(n2ncc3c(Oc4ccccc4C#N)ncnc32)C1` (centres unmarked) [Example 90, 3-[4-(2-Cyano-phenoxy)-pyrazolo[3,4-d]pyrimidin-1-yl]-piperidine-1-carboxylic acid tert-butyl ester]: 0.12 µM; for `CCc1cc(Oc2ncnc3c2cnn3C2CCN(C(=O)OC(C)(C)C)CC2)nc(C)n1` [Example 103, 4-[4-(6-Ethyl-2-methyl-pyrimidin-4-yloxy)-pyrazolo[3,4-d]pyrimidin-1-yl]-piperidine-1-carboxylic acid tert-butyl ester]: 3.4 µM.

Consider `CC(C)c1noc([C@H]2CC[C@H](n3ncc4c(Oc5ccc(S(C)(=O)=O)cc5F)ncnc43)CC2)n1` [Example 132, 4-(2-Fluoro-4-methanesulfonyl-phenoxy)-1-[4-(3-isopropyl-[1,2,4]oxadiazol-5-yl)-trans-cyclohexyl]-1H-pyrazolo[3,4-d]pyrimidine], for which the EC50 is 0.35 µM. `Cc1ncccc1Oc1ncnc2c1cnn2C1CCN(C(=O)OC2CCC2)CC1` [Example 116, 4-[4-(2-Methyl-pyridin-3-yloxy)-pyrazolo[3,4-d]pyrimidin-1-yl]-piperidine-1-carboxylic acid cyclobutyl ester] came in with an EC50 of 0.55 µM. This EC50 is about 1.6-fold higher than that of the molecule before. Consider `CC(=O)Nc1ccc(Oc2ncnc3c2cnn3C2CCN(C(=O)OC(C)(C)C)CC2)cc1` [Example 70, 4-[4-(4-Acetylamino-phenoxy)-pyrazolo[3,4-d]pyrimidin-1-yl]-piperidine-1-carboxylic acid tert-butyl ester], for which the EC50 came to 0.14 µM. The result for `CC(C)(C)OC(=O)N1CCC(n2ncc3c(Oc4ccc(S(C)(=O)=O)cc4)nc(Cl)nc32)CC1` [Example 172, 4-[6-Chloro-4-(4-methanesulfonyl-phenoxy)-pyrazolo[3,4-d]pyrimidin-1-yl]-piperidine-1-carboxylic acid tert-butyl ester] reads 0.024 µM; that for `CCOC(=O)N1CCC(n2ncc3c(Oc4ccc(S(C)(=O)=O)cc4)ncnc32)CC1` [Example 13, 4-[4-(4-Methanesulfonyl-phenoxy)-pyrazolo[3,4-d]pyrimidin-1-yl]-piperidine-1-carboxylic acid ethyl ester], 0.65 µM. The same measure for `Cc1cc(C(=O)N2CCC(n3ncc4c(Oc5ccc(S(C)(=O)=O)cc5)ncnc43)CC2)nn1C` [Example 152, (1,5-Dimethyl-1H-pyrazol-3-yl)-{4-[4-(4-methanesulfonyl-phenoxy)-pyrazolo[3,4-d]pyrimidin-1-yl]-piperidin-1-yl}-methanone]: 0.39 µM. With `CS(=O)(=O)c1ccc(Oc2ncnc3c2cnn3C2CCN(C(=O)CC3CCCCC3)CC2)cc1` [Example 145, 2-Cyclohexyl-1-{4-[4-(4-methanesulfonyl-phenoxy)-pyrazolo[3,4-d]pyrimidin-1-yl]-piperidin-1-yl}-ethanone], the EC50 is 0.58 µM. Molecule `CC(=O)N1CCN(c2ccc(Oc3ncnc4c3cnn4C3CCN(C(=O)OC(C)(C)C)CC3)cc2)CC1` [Example 67, 4-{4-[4-(4-Acetyl-piperazin-1-yl)-phenoxy]-pyrazolo[3,4-d]pyrimidin-1-yl}-piperidine-1-carboxylic acid tert-butyl ester] had an EC50 of 0.85 µM. This EC50 and that of the molecule before are within 1.5-fold of each other. As for `Cc1ncccc1Oc1ncnc2c1cnn2C1CCN(C(=O)OC(C)(C)C)CC1` [Example 92, 4-[4-(2-Methyl-pyridin-3-yloxy)-pyrazolo[3,4-d]pyrimidin-1-yl]-piperidine-1-carboxylic acid tert-butyl ester], the EC50 came out at 0.17 µM.
